Test results published in the supplement of paper PMC10307832.

Experiments:
Test in all cases: relative viability (nuclei count vs DMSO), 5 days (fraction); higher = more cells survive
Sorafenib = compound: CNC(=O)c1cc(Oc2ccc(NC(=O)Nc3ccc(Cl)c(C(F)(F)F)c3)cc2)ccn1 [Sorafenib]
Method in brief: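 Viability here means nuclei in treated wells divided by nuclei in vehicle wells, reported as the median across plates. Only plates with control CV below 25% and at least one doubling passed. Lung cancer cell lines in 1536-well plates were exposed to five √10-spaced library-drug doses for 5 days and counted from 4× Hoechst images in MetaXpress.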

Sorafenib + Olaparib = compound: CNC(=O)c1cc(Oc2ccc(NC(=O)Nc3ccc(Cl)c(C(F)(F)F)c3)cc2)ccn1 [Sorafenib] + O=C(c1cc(Cc2n[nH]c(=O)c3ccccc23)ccc1F)N1CCN(C(=O)C2CC2)CC1 [Olaparib] (partner 8 µM)
Method in brief: (§1)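 Lung cancer cell lines in 1536-well plates were dosed by pin tool the day after seeding, either with one drug alone or with a fixed anchor-drug dose plus five library-drug doses (not always all listed) in √10 steps. After 5 days, cells were fixed and their nuclei stained in one step (final 0.05% Triton X-100, 1% formaldehyde, 1 ug/ml Hoechst), then counted on 4× images. Relative viability is the nuclei count in treated wells divided by that in vehicle wells. Values are medians of duplicate plates.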

Sorafenib + Foretinib = compound: CNC(=O)c1cc(Oc2ccc(NC(=O)Nc3ccc(Cl)c(C(F)(F)F)c3)cc2)ccn1 [Sorafenib] + COc1cc2c(Oc3ccc(NC(=O)C4(C(=O)Nc5ccc(F)cc5)CC4)cc3F)ccnc2cc1OCCCN1CCOCC1 [Foretinib] (partner 0.25 µM)
Method in brief: as §1

Sorafenib + Phenformin = compound: CNC(=O)c1cc(Oc2ccc(NC(=O)Nc3ccc(Cl)c(C(F)(F)F)c3)cc2)ccn1 [Sorafenib] + N=C(N)NC(=N)NCCc1ccccc1 [Phenformin] (partner 250 µM)
Method in brief: as §1

Sorafenib + Decitabine = compound: CNC(=O)c1cc(Oc2ccc(NC(=O)Nc3ccc(Cl)c(C(F)(F)F)c3)cc2)ccn1 [Sorafenib] + Nc1ncn([C@H]2C[C@H](O)[C@@H](CO)O2)c(=O)n1 [Decitabine] (partner 2 µM)
Method in brief: as §1

Sorafenib + Alpelisib = compound: CNC(=O)c1cc(Oc2ccc(NC(=O)Nc3ccc(Cl)c(C(F)(F)F)c3)cc2)ccn1 [Sorafenib] + Cc1nc(NC(=O)N2CCC[C@H]2C(N)=O)sc1-c1ccnc(C(C)(C)C(F)(F)F)c1 [Alpelisib] (partner 2 µM)
Method in brief: as §1

Sorafenib + Linsitinib = compound: CNC(=O)c1cc(Oc2ccc(NC(=O)Nc3ccc(Cl)c(C(F)(F)F)c3)cc2)ccn1 [Sorafenib] + C[C@]1(O)C[C@@H](c2nc(-c3ccc4ccc(-c5ccccc5)nc4c3)c3c(N)nccn32)C1 [Linsitinib] (partner 1 µM)
Method in brief: as §1

Sorafenib + Lapatinib = compound: CNC(=O)c1cc(Oc2ccc(NC(=O)Nc3ccc(Cl)c(C(F)(F)F)c3)cc2)ccn1 [Sorafenib] + CS(=O)(=O)CCNCc1ccc(-c2ccc3ncnc(Nc4ccc(OCc5cccc(F)c5)c(Cl)c4)c3c2)o1 [Lapatinib] (partner 2 µM)
Method in brief: as §1

Sorafenib + Pictilisib = compound: CNC(=O)c1cc(Oc2ccc(NC(=O)Nc3ccc(Cl)c(C(F)(F)F)c3)cc2)ccn1 [Sorafenib] + CS(=O)(=O)N1CCN(Cc2cc3nc(-c4cccc5[nH]ncc45)nc(N4CCOCC4)c3s2)CC1 [Pictilisib] (partner 1 µM)
Method in brief: as §1

Sorafenib + Navitoclax = compound: CNC(=O)c1cc(Oc2ccc(NC(=O)Nc3ccc(Cl)c(C(F)(F)F)c3)cc2)ccn1 [Sorafenib] + CC1(C)CCC(c2ccc(Cl)cc2)=C(CN2CCN(c3ccc(C(=O)NS(=O)(=O)c4ccc(N[C@H](CCN5CCOCC5)CSc5ccccc5)c(S(=O)(=O)C(F)(F)F)c4)cc3)CC2)C1 [Navitoclax] (partner 0.5 µM)
Method in brief: as §1

Sorafenib + Crizotinib = compound: CNC(=O)c1cc(Oc2ccc(NC(=O)Nc3ccc(Cl)c(C(F)(F)F)c3)cc2)ccn1 [Sorafenib] + C[C@@H](Oc1cc(-c2cnn(C3CCNCC3)c2)cnc1N)c1c(Cl)ccc(F)c1Cl [Crizotinib] (partner 1 µM)
Method in brief: as §1

Sorafenib + Bortezomib = compound: CNC(=O)c1cc(Oc2ccc(NC(=O)Nc3ccc(Cl)c(C(F)(F)F)c3)cc2)ccn1 [Sorafenib] + CC(C)C[C@H](NC(=O)[C@H](Cc1ccccc1)NC(=O)c1cnccn1)B(O)O [Bortezomib] (partner 0.002 µM)
Method in brief: as §1

Row | Cell Line | relative viability (Sorafenib; 0.08 µM) | relative viability (Sorafenib; 0.253 µM) | relative viability (Sorafenib; 8 µM) | relative viability (Sorafenib + Olaparib; first compound 0.08 µM) | relative viability (Sorafenib + Olaparib; first compound 2.53 µM) | relative viability (Sorafenib + Olaparib; first compound 8 µM) | relative viability (Sorafenib + Foretinib; first compound 0.08 µM) | relative viability (Sorafenib + Foretinib; first compound 0.253 µM) | relative viability (Sorafenib + Foretinib; first compound 2.53 µM) | relative viability (Sorafenib + Foretinib; first compound 8 µM) | relative viability (Sorafenib + Alpelisib; first compound 0.08 µM) | relative viability (Sorafenib + Alpelisib; first compound 0.253 µM) | relative viability (Sorafenib + Alpelisib; first compound 2.53 µM) | relative viability (Sorafenib + Alpelisib; first compound 8 µM) | relative viability (Sorafenib + Linsitinib; first compound 2.53 µM) | relative viability (Sorafenib + Linsitinib; first compound 8 µM) | relative viability (Sorafenib + Lapatinib; first compound 0.08 µM) | relative viability (Sorafenib + Lapatinib; first compound 2.53 µM) | relative viability (Sorafenib + Lapatinib; first compound 8 µM) | relative viability (Sorafenib + Pictilisib; first compound 0.08 µM) | other results
1 | A549 | 1.07 | 0.921 | 0.523 | 0.496 | 0.302 | 0.208 | 0.904 | 0.893 | 0.896 | 0.584 | 0.803 | 0.664 | 0.735 | 0.453 | 0.512 | 0.341 | 1.02 | 0.962 | 0.208 | 0.631 | relative viability (Sorafenib + Olaparib; first compound 0.253 µM): 0.289; relative viability (Sorafenib + Phenformin; first compound 0.08 µM): 0.213; relative viability (Sorafenib + Phenformin; first compound 0.253 µM): 0.158; relative viability (Sorafenib + Phenformin; first compound 2.53 µM): 0.193; relative viability (Sorafenib + Phenformin; first compound 8 µM): 0.0523; relative viability (Sorafenib + Decitabine; first compound 0.08 µM): 0.233; relative viability (Sorafenib + Decitabine; first compound 0.253 µM): 0.34; relative viability (Sorafenib + Decitabine; first compound 2.53 µM): 0.218; relative viability (Sorafenib + Decitabine; first compound 8 µM): 0.245; relative viability (Sorafenib + Linsitinib; first compound 0.253 µM): 0.622; relative viability (Sorafenib + Pictilisib; first compound 0.253 µM): 0.5; relative viability (Sorafenib + Pictilisib; first compound 2.53 µM): 0.412; relative viability (Sorafenib + Pictilisib; first compound 8 µM): 0.116
2 | Calu-6 | 1.06 | 0.959 | 0.711 | 0.538 | 0.531 | 0.306 | 0.973 | 0.852 | 0.816 | 0.622 | 0.923 | 0.954 | 0.948 | 0.487 | 0.904 | 0.778 | 1.04 | 0.99 | 0.378 | 0.964 | relative viability (Sorafenib; 2.53 µM): 0.925; relative viability (Sorafenib + Navitoclax; first compound 0.08 µM): 0.887; relative viability (Sorafenib + Navitoclax; first compound 0.253 µM): 0.794; relative viability (Sorafenib + Navitoclax; first compound 2.53 µM): 0.724; relative viability (Sorafenib + Navitoclax; first compound 8 µM): 0.457; relative viability (Sorafenib + Crizotinib; first compound 0.08 µM): 0.928; relative viability (Sorafenib + Crizotinib; first compound 0.253 µM): 0.735; relative viability (Sorafenib + Crizotinib; first compound 2.53 µM): 0.679; relative viability (Sorafenib + Crizotinib; first compound 8 µM): 0.366; relative viability (Sorafenib + Linsitinib; first compound 0.08 µM): 0.885; relative viability (Sorafenib + Bortezomib; first compound 0.08 µM): 0.948; relative viability (Sorafenib + Bortezomib; first compound 0.253 µM): 0.936; relative viability (Sorafenib + Bortezomib; first compound 2.53 µM): 0.934; relative viability (Sorafenib + Bortezomib; first compound 8 µM): 0.61; relative viability (Sorafenib + Lapatinib; first compound 0.253 µM): 0.984; relative viability (Sorafenib + Pictilisib; first compound 0.253 µM): 0.805; relative viability (Sorafenib + Pictilisib; first compound 2.53 µM): 0.864; relative viability (Sorafenib + Pictilisib; first compound 8 µM): 0.351
